The record followed here is PubChem BioAssay (NCI).

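48-hour exposure; five concentrations; linearly interpolated endpoints. Abbreviation: GI50, concentration required for 50% inhibition of growth. TGI: concentration producing complete growth inhibition.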

Among the test systems are A549 NSCLC; LOX IMVI melanoma; DU-145 prostate; UACC-257 melanoma; RXF 393 renal; NCI/ADR-RES ovarian; RPMI-8226 leukemia; T-47D breast; EKVX NSCLC; HS 578T breast.
Holding throughout (test): growth of human tumour cells (NCI), 48 h

Regarding `COc1ccc(/C=C(/c2ccccc2)[N+](=O)[O-])cc1`, the GI50 was 2.13 µM in the test with A549 NSCLC; 1.47 µM with LOX IMVI melanoma; 1.65 µM in the test on DU-145 prostate; 1.6 µM in the test with UACC-257 melanoma; 1.35 µM in the test on RXF 393 renal; 1.75 µM with NCI/ADR-RES ovarian. Further, the GI50 is 0.486 µM in the test with RPMI-8226 leukemia, 1.2 µM in the test with T-47D breast, 1.73 µM with EKVX NSCLC and 2.4 µM in the test with HS 578T breast. The TGI amounted to 5.12 µM in the test with A549 NSCLC; 2.89 µM in the test on LOX IMVI melanoma; 3.05 µM with DU-145 prostate; 3.4 µM with UACC-257 melanoma; 2.78 µM in the test on RXF 393 renal; 4.66 µM with NCI/ADR-RES ovarian. Besides, the TGI in the test with RPMI-8226 leukemia turned out to be 3.01 µM; with T-47D breast, 4.5 µM; with EKVX NSCLC, 3.52 µM; in the test with HS 578T breast, 7.7 µM.
As for `O=C(CSC(c1ccccc1)c1ccccc1)N/N=C/c1ccco1`, the GI50 in the test with A549 NSCLC is 1.54 µM; in the test with LOX IMVI melanoma, 1.48 µM; in the test with DU-145 prostate it was 2.69 µM; with RXF 393 renal, 1.25 µM; with RPMI-8226 leukemia, 1.94 µM; in the test on T-47D breast it was 28.3 µM. Further, the GI50 in the test on EKVX NSCLC is 2.44 µM; in the test on HS 578T breast, 2.23 µM. The TGI in the test on A549 NSCLC was 5.28 µM; in the test on LOX IMVI melanoma, 5.2 µM; in the test on DU-145 prostate it was over 4.92 µM; with UACC-257 melanoma, 0.935 µM; in the test with RXF 393 renal it was 3.32 µM; in the test with NCI/ADR-RES ovarian, 1.24 µM. For the same molecule, the TGI in the test with RPMI-8226 leukemia was 4.45 µM; in the test with T-47D breast, over 100 µM; with EKVX NSCLC, over 5.19 µM; in the test on HS 578T breast, 5.82 µM.
With `CCN(CC)CCNC(=O)c1ccc(C)c(OCc2ccccc2)c1[N+](=O)[O-]`, the TGI in the test with A549 NSCLC is over 100 µM; in the test with LOX IMVI melanoma, 49.9 µM; with DU-145 prostate, over 100 µM; with UACC-257 melanoma, 36.3 µM; in the test with RXF 393 renal it was over 91.3 µM; with NCI/ADR-RES ovarian, over 62.8 µM. The TGI in the test on RPMI-8226 leukemia is 72.6 µM; with T-47D breast it was 58 µM; in the test with EKVX NSCLC, over 100 µM; with HS 578T breast, over 63.6 µM.
For the molecule `Nc1ccccc1SC1CC(=O)N(c2ccc(Cl)c(Cl)c2)C1=O` (stereo not given), the GI50 in the test on A549 NSCLC was 19.5 µM; in the test with LOX IMVI melanoma it was 31.7 µM; in the test on DU-145 prostate, 27.5 µM; in the test on UACC-257 melanoma, 31.8 µM; with RXF 393 renal, 14.2 µM; in the test on NCI/ADR-RES ovarian it was 17.1 µM. The GI50 in the test with RPMI-8226 leukemia is 10.6 µM; with T-47D breast it was 12.6 µM; with EKVX NSCLC, 17.4 µM; in the test with HS 578T breast it was 12.5 µM. Further, the TGI with A549 NSCLC was over 100 µM; with LOX IMVI melanoma, over 100 µM; in the test with DU-145 prostate, over 100 µM; in the test with UACC-257 melanoma, over 100 µM; in the test on RXF 393 renal, 42.8 µM; with NCI/ADR-RES ovarian it was over 100 µM. Also, the TGI in the test with RPMI-8226 leukemia was over 100 µM; with T-47D breast it was over 100 µM; in the test with EKVX NSCLC, over 100 µM; in the test with HS 578T breast it was 49.5 µM.
For the molecule `CCCCCCCCCCN1CCC(N2CCCCC2)CC1`, the GI50 is 3.74 µM in the test on A549 NSCLC; 1.23 µM with LOX IMVI melanoma; 9.64 µM in the test with DU-145 prostate; 1.76 µM in the test on UACC-257 melanoma; 2.01 µM in the test with RXF 393 renal; 6.76 µM with NCI/ADR-RES ovarian. Besides, the GI50 with RPMI-8226 leukemia is 1.83 µM; with T-47D breast, 1.53 µM; in the test with EKVX NSCLC, 4.37 µM; in the test on HS 578T breast, 2.06 µM. Further, the TGI with A549 NSCLC was 12.1 µM; with LOX IMVI melanoma, 2.47 µM; in the test with DU-145 prostate, 21.9 µM; in the test on UACC-257 melanoma it was 3.24 µM; in the test on RXF 393 renal it was 7.15 µM; in the test with NCI/ADR-RES ovarian, 20.2 µM. Further, the TGI in the test with RPMI-8226 leukemia came to 5.21 µM; in the test on T-47D breast, 3.58 µM; with EKVX NSCLC, 18.3 µM; in the test on HS 578T breast, 6.25 µM.
For `C/C(=N\NC(=S)N1CC2CCC(CC2)C1)c1ccccn1`, the GI50 with A549 NSCLC was 0.064 µM; with LOX IMVI melanoma, 0.0428 µM; in the test with DU-145 prostate it was 0.408 µM; in the test with UACC-257 melanoma, 0.0214 µM; in the test with RXF 393 renal it was 0.226 µM; with NCI/ADR-RES ovarian, under 0.0177 µM. Moreover, the GI50 is 0.0368 µM in the test with RPMI-8226 leukemia, 0.0113 µM with T-47D breast, 0.0322 µM in the test on EKVX NSCLC and 0.226 µM in the test with HS 578T breast. For the same molecule, the TGI amounted to 1.66 µM with A549 NSCLC; 1.81 µM with LOX IMVI melanoma; 2.83 µM in the test with DU-145 prostate; 0.357 µM in the test with UACC-257 melanoma; 1.3 µM in the test with RXF 393 renal; 2.43 µM in the test with NCI/ADR-RES ovarian. Moreover, the TGI turned out to be 0.78 µM in the test on RPMI-8226 leukemia, 1.39 µM with T-47D breast, 1.16 µM with EKVX NSCLC and 3.87 µM in the test with HS 578T breast.
Turning to `O=C(NCc1ccc(S(=O)(=O)c2cc(F)cc(F)c2)cc1)c1ccc2nccn2c1`, the GI50 in the test with A549 NSCLC was 9.59 µM; in the test with LOX IMVI melanoma, over 33.7 µM; in the test on DU-145 prostate it was 0.0773 µM; in the test with UACC-257 melanoma, over 59.1 µM; with RXF 393 renal it was over 44.8 µM; in the test with NCI/ADR-RES ovarian it was 5.08 µM. Further, the GI50 in the test with T-47D breast was 11.7 µM; in the test on EKVX NSCLC, 23.3 µM; with HS 578T breast, 20.5 µM. Also, the TGI in the test on A549 NSCLC is over 100 µM; in the test on LOX IMVI melanoma, over 66.8 µM; in the test on DU-145 prostate, over 100 µM; with UACC-257 melanoma, over 100 µM; in the test on RXF 393 renal, over 72.4 µM; with NCI/ADR-RES ovarian it was over 100 µM. Further, the TGI in the test on RPMI-8226 leukemia was over 100 µM; in the test on T-47D breast, over 100 µM; with EKVX NSCLC, over 100 µM; in the test on HS 578T breast, 80.1 µM.
With `COC(C(=O)[C@@H](O)[C@@H](C)O)[C@@H]1Cc2cc3cc(O[C@H]4C[C@@H](O[C@H]5C[C@@H](O)[C@H](O)C(C)O5)[C@H](O)C(C)O4)c(C)c(O)c3c(O)c2C(=O)[C@H]1O[C@H]1C[C@@H](O[C@H]2C[C@@H](O[C@H]3C[C@@H](O)[C@H](OC)C(C)O3)[C@@H](O)C(C)O2)[C@H](O)C(C)O1` (stereo not given in full), the TGI with A549 NSCLC is over 33.3 µM; with LOX IMVI melanoma it was 0.0289 µM; in the test on DU-145 prostate it was over 33.3 µM; with UACC-257 melanoma, 0.101 µM; in the test with RXF 393 renal, 0.139 µM; in the test with NCI/ADR-RES ovarian, over 33.3 µM. In addition, the TGI in the test on RPMI-8226 leukemia was 7.13 µM; in the test with T-47D breast, 0.237 µM; with EKVX NSCLC, over 33.3 µM; in the test with HS 578T breast it was over 33.3 µM. Moreover, the GI50 was 0.00894 µM in the test on LOX IMVI melanoma; 0.0188 µM in the test on DU-145 prostate; 0.013 µM in the test on UACC-257 melanoma; 0.034 µM with RXF 393 renal; 6.93 µM in the test with NCI/ADR-RES ovarian; 0.0141 µM in the test with RPMI-8226 leukemia. Moreover, the GI50 in the test on T-47D breast was 0.0139 µM; with HS 578T breast, 0.019 µM.
Consider `O=C(OCC(OC(=O)c1ccccc1)C(OC(=O)c1ccccc1)C(OC(=O)c1ccccc1)c1cnn(-c2ccccc2)n1)c1ccccc1` (stereo not given), for which the TGI with A549 NSCLC, with LOX IMVI melanoma, with DU-145 prostate, in the test on UACC-257 melanoma, in the test with RXF 393 renal and in the test with NCI/ADR-RES ovarian was over 100 µM throughout. In addition, the TGI in the test on RPMI-8226 leukemia, in the test on T-47D breast, in the test with EKVX NSCLC and in the test with HS 578T breast was over 100 µM in each case.
For `Cn1cc(-c2ccc(-c3cncc(Cl)c3N3CCC4(CCNC4=O)CC3)cc2)cn1`, the GI50 was 29 µM with A549 NSCLC; 77.1 µM in the test with LOX IMVI melanoma; 50.3 µM with DU-145 prostate; over 100 µM in the test on UACC-257 melanoma; 18.2 µM in the test with RXF 393 renal; 45.3 µM in the test on NCI/ADR-RES ovarian. For the same molecule, the GI50 in the test on RPMI-8226 leukemia is 17 µM; in the test on T-47D breast, 25.9 µM; in the test on EKVX NSCLC, 51.9 µM; in the test on HS 578T breast, 80.1 µM. Also, the TGI in the test on A549 NSCLC, in the test with LOX IMVI melanoma, in the test with DU-145 prostate, with UACC-257 melanoma, with RXF 393 renal and in the test with NCI/ADR-RES ovarian was over 100 µM throughout. The TGI with RPMI-8226 leukemia is 95.3 µM; in the test with T-47D breast, over 100 µM; in the test with EKVX NSCLC, over 100 µM; with HS 578T breast, over 100 µM.
Regarding `CC/C=C/C/C=C/C/C=C/C/C=C/C/C=C/C/C=C/CCC(=O)Nc1ccn([C@@H]2O[C@H](CO)[C@@H](O)C2(F)F)c(=O)n1`, the GI50 was 0.0369 µM with A549 NSCLC; 0.0512 µM in the test with LOX IMVI melanoma; 0.043 µM with DU-145 prostate; 5.05 µM with UACC-257 melanoma; 0.169 µM in the test with RXF 393 renal; 0.0386 µM in the test on NCI/ADR-RES ovarian. Further, the GI50 is 0.245 µM in the test on RPMI-8226 leukemia, 0.174 µM in the test with T-47D breast, 6.14 µM with EKVX NSCLC and 46.4 µM in the test on HS 578T breast. The TGI with A549 NSCLC was 20.4 µM; in the test on LOX IMVI melanoma, 0.832 µM; in the test on DU-145 prostate it was 24.9 µM; in the test on UACC-257 melanoma, 46.4 µM; with RXF 393 renal it was 18.3 µM; in the test with NCI/ADR-RES ovarian, 16.9 µM. Further, the TGI with RPMI-8226 leukemia was 39 µM; in the test on T-47D breast, 54.4 µM; with EKVX NSCLC, over 58.9 µM; in the test on HS 578T breast, over 76.9 µM.
